Measurements as given in patent publication US20180185309A1, “METHODS AND COMPOSITIONS FOR TREATING NEPHROPATHY” (The Regents of the University of California, priority 2015, published 2018).

How the values were obtained:
[1] = chemical chaperones that inhibit ER stress; cited from earlier work
[2] = target: T1, sEH (Homo sapiens, UniProt P34913); test: sEH inhibition, assay not specified; assay type: biochemical
T1 sequence (P34913 1-555): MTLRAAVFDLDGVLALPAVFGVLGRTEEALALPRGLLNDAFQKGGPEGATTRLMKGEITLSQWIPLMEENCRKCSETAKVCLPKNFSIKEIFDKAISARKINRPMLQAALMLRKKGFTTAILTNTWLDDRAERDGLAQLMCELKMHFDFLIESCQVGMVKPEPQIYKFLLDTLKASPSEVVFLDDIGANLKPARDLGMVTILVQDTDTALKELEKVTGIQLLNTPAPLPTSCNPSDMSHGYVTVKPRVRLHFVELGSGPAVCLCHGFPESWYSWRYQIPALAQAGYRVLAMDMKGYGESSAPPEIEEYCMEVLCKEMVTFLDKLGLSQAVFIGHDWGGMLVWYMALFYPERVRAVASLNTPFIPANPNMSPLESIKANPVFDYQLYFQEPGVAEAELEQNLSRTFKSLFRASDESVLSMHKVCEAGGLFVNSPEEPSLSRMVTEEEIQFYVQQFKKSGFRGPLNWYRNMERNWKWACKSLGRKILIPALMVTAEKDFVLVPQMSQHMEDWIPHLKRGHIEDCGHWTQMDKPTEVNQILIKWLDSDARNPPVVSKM
Source text: “Soluble epoxide hydrolase” (“sEH”) is an epoxide hydrolase which in endothelial and smooth muscle cells converts EETs to dihydroxy derivatives called dihydroxyeicosatrienoic acids (“DHETs”). The cloning and sequence of the murine sEH is set forth in Grant et al., J. Biol. Chem. 268(23):17628-17633 (1993). The cloning, sequence, and accession numbers of the human sEH sequence are set forth in Beetham et al., Arch. Biochem. Biophys. 305(1):197-201 (1993). The amino acid sequence of human sEH is SEQ ID NO.:1, while the nucleic acid sequence encoding the human sEH is SEQ ID NO.:2. (The sequence set forth as SEQ ID NO.:2 is the coding portion of the sequence set forth in the Beetham et al. 1993 paper and in the NCBI Entrez Nucleotide Browser at accession number L05779, which include the 5′ untranslated region and the 3′ untranslated region.) The evolution and nomenclature of the gene is discussed in Beetham et al., DNA Cell Biol. 14(1):61-71 (1995). Soluble epoxide hydrolase represents a single highly conserved gene product with over 90% homology between rodent and human (Arand et al., FEBS Lett., 338:251-256 (1994)). Unless otherwise specified, as used herein, the terms “soluble epoxide hydrolase” and “sEH” refer to human sEH. […]

[3] = Metabolic stability, method not specified; assay type: in vitro ADME

In the case of `O=C(O)CCCc1ccccc1` [4-PBA, 4-phenyl butyric acid], the DN disease progression [1] is listed as “slow DN disease progression”.
In the case of `CCCCCCCCCCCCNC(=O)NC12CC3CC(CC(C3)C1)C2` [ADU, N-Adamantyl-N′-dodecyl urea], the “activity on sEH” value [2] is reported as “particularly high activity” and the metabolic stability [3] is reported as “metabolically stable”.
In the case of `C[C@H](CCC(=O)NCCS(=O)(=O)O)[C@H]1CC[C@H]2[C@@H]3[C@@H](O)C[C@@H]4C[C@H](O)CC[C@]4(C)[C@H]3CC[C@]12C` [TUDCA, tauroursodeoxycholic acid], the DN disease progression [1] is given as “slow DN disease progression”.
